Laboratory results as given in US11084814B2, “Pyrido[3, 4-d]pyrimidine derivative and pharmaceutically acceptable salt thereof” (Teijin Pharma Limited, priority 2016, dated 2021).

Assays:
CDK4/cyclin D3 = target: T1, CDK4/cyclin D3 (Homo sapiens, UniProt P11802); assay: Human CDK4/cyclin D3 inhibitory activity (QS S Assist CDK4/Cyclin D3_FP Kit, IMAP fluorescent polarization); format: biochemical; conditions: read-out: CDK4 Activity symbol
T1 construct: purchased Carna Biosciences, Inc. QS S Assist CDK4/Cyclin D3_FP Kit
T1 sequence (P11802 whole entry): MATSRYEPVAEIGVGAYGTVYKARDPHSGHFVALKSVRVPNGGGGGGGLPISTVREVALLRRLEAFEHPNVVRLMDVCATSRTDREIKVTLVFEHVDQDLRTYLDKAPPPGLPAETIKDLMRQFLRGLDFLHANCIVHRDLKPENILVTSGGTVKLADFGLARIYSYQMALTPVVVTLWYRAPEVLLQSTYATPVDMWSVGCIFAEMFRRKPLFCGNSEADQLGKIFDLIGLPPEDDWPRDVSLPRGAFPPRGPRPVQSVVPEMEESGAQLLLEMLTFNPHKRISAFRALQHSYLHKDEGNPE
T1 sequence (P30281 whole entry partner): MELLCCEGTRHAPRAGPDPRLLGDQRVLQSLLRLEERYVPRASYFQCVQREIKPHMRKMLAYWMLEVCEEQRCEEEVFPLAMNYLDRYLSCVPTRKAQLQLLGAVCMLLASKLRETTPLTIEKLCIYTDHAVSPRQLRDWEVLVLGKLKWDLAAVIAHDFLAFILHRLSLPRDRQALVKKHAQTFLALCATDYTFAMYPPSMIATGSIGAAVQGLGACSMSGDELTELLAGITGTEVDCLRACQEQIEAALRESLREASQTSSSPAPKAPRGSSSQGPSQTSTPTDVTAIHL
Outline: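 Kinase reactions used kit CDK4/cyclin D3 at 12.5–25 ng/well with the kit ATP/substrate/metal mix in 20 mM HEPES (pH 7.4), 0.01% Tween20 and 2 mM DTT, run 45 min at room temperature. Phosphorylation was detected by IMAP fluorescence polarization (ex 485/em 535 nm) after 30 min binding in the dark. IC50 was fitted from percent inhibition against DMSO controls with and without enzyme.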

CDK2/cyclin A2 = target: T2, CDK2/cyclin A2 (Homo sapiens, UniProt P24941); assay: Human CDK2/cyclin A2 inhibitory activity (QS S Assist CDK2/Cyclin A2_FP Kit, IMAP fluorescent polarization); format: biochemical; conditions: read-out: CDK2 Activity symbol
T2 construct: purchased Carna Biosciences, Inc. QS S Assist CDK2/Cyclin A2_FP Kit
Outline: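 Kit CDK2/cyclin A2 (2.5 ng/well) was reacted with kit ATP/substrate/metal in 20 mM HEPES pH 7.4, 0.01% Tween 20 and 2 mM DTT for 60 min at room temperature. IMAP binding reagent was added for 30 min, then fluorescence polarization was read at 485/535 nm. IC50 came from dose-response fitting of percent inhibition.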

Compound	IC50 (CDK4/cyclin D3) [µM]	IC50 (CDK2/cyclin A2) [µM]
CN1CCN(c2ccc(Nc3ncc4cc(CO)nc(-c5ccccc5)c4n3)nc2)CC1 [Compound 6]	< 0.01	≥ 0.1
C[C@@H](O)c1cc2cnc(Nc3ccc(CN4CCN(CCO)CC4)cn3)nc2c(N2CCCCCC2)n1 [Compound 59]	< 0.01	≥ 0.1
CC(O)c1cc2cnc(Nc3ccc(CN4CCN(CCO)CC4)cn3)nc2c(N2C3CCC2COC3)n1 (centres unmarked) [Compound 295]	< 0.01	≥ 0.1
C[C@@H](O)c1cc2cnc(Nc3ccc4c(n3)CCN(C(=O)Cn3cnnc3)C4)nc2c(N2CCCCC2)n1 [Compound 333]	< 0.01	≥ 0.1
C[C@@H](O)c1cc2cnc(Nc3ccc(CN4CCN(CCO)CC4)cn3)nc2c(N2CCN(C)CC2)n1 [Compound 77]	0.01 to 0.1	≥ 0.1
C[C@@H](O)c1cc2cnc(Nc3ccc4c(n3)CCN(C(=O)C3CN(C)C3)C4)nc2c(N2C3CCC2CC3)n1 [Compound 239]	< 0.01	≥ 0.1
C[C@@H](O)c1cc2cnc(Nc3ccc(O[C@H]4CCCN(CCO)C4)cn3)nc2c(N2CC[C@@H](F)C2)n1 [Compound 254]	< 0.01	≥ 0.1
CCN1CCN(Cc2ccc(Nc3ncc4cc([C@@H](C)O)nc(N5CCCCC5)c4n3)nc2)CC1 [Compound 122]	< 0.01	≥ 0.1
CO[C@H](C)c1cc2cnc(Nc3ccc(N4CCNCC4)nn3)nc2c(N2CCC(F)CC2)n1 [Compound 126]	< 0.01	≥ 0.1
C[C@@H](O)c1cc2cnc(Nc3ccc4c(n3)CCN(C(=O)[C@H]3CCNC3)C4)nc2c(N2CCCCC2)n1 [Compound 210]	< 0.01	≥ 0.1
C[C@@H](O)c1cc2cnc(Nc3ccc4c(n3)CCN(C(=O)[C@@H]3CCCCN3C)C4)nc2c(N2C3CCC2CC3)n1 [Compound 237]	< 0.01	≥ 0.1
C[C@@H](O)c1cc2cnc(Nc3ccc(CN4CCN(C)CC4)cn3)nc2c(N2CCC(C(F)(F)F)CC2)n1 [Compound 144]	< 0.01	≥ 0.1
CC(O)c1cc2cnc(Nc3ccc(CN4CCN(C)CC4)cn3)nc2c(N2CC3CCC(C2)O3)n1 (centres unmarked) [Compound 321]	< 0.01	≥ 0.1
OCCN1CCN(Cc2ccc(Nc3ncc4cc(C5COC5)nc(N5CCCCC5)c4n3)nc2)CC1 [Compound 275]	< 0.01	≥ 0.1
c1cc(Nc2ncc3cc(C4CCOC4)nc(N4C5CCC4CC5)c3n2)ncc1CN1CCNCC1 (centres unmarked) [Compound 205]	< 0.01	≥ 0.1
C[C@@H](O)c1cc2cnc(Nc3ccc4c(n3)CCN(C(=O)CN3CC5(CC(O)C5)C3)C4)nc2c(N2CCCCC2)n1 [Compound 268]	< 0.01	≥ 0.1
C[C@@H](O)c1cc2cnc(Nc3ccc(O[C@H]4CCCN(CCO)C4)cn3)nc2c(N2C3CCC2CC3)n1 [Compound 253]	< 0.01	≥ 0.1
C[C@H](O)Cc1cc2cnc(Nc3ccc(CN4CCN(CCO)CC4)cn3)nc2c(N2CCCCC2)n1 [Compound 202]	0.01 to 0.1	≥ 0.1
C[C@@H](O)c1cc2cnc(Nc3ccc4c(n3)CCN(C(=O)CN3CC5(COC5)C3)C4)nc2c(N2CCCCC2)n1 [Compound 266]	< 0.01	≥ 0.1
CC[C@H](O)c1cc2cnc(Nc3ccc(CN4CCN(CCO)CC4)cn3)nc2c(N2CCCCC2)n1 [Compound 160]	< 0.01	≥ 0.1
C[C@@H](O)c1cc2cnc(Nc3ccc4c(n3)CCN(C(=O)CN3CC(O)C3)C4)nc2c(N2C3CCC2CC3)n1 [Compound 229]	< 0.01	≥ 0.1
C[C@H](CO)c1cc2cnc(Nc3ccc(CN4CCN(CCO)CC4)cn3)nc2c(N2CCCCC2)n1 [Compound 195]	0.01 to 0.1	≥ 0.1
C[C@@H](O)c1cc2cnc(Nc3ccc(OC4CCN(CCO)CC4)cn3)nc2c(N2CC[C@@H](F)C2)n1 [Compound 219]	< 0.01	≥ 0.1

Next, values leading:

IC50 (CDK4/cyclin D3) [µM]	IC50 (CDK2/cyclin A2) [µM]	Compound
< 0.01	≥ 0.1	C[C@@H](O)c1cc2cnc(Nc3ccc(CN4CCN(C)CC4)cn3)nc2c(N2CCC(F)(F)CC2)n1 [Compound 150]
< 0.01	≥ 0.1	C[C@@H](O)c1cc2cnc(Nc3ccc(CN4CCNCC4)cn3)nc2c(N2CCCCC2)n1 [Compound 155]
< 0.01	≥ 0.1	C[C@@H](O)c1cc2cnc(Nc3ccc(O[C@H]4CCCNC4)cn3)nc2c(N2CCCCC2)n1 [Compound 241]
< 0.01	≥ 0.1	C[C@H](O)Cc1cc2cnc(Nc3ccc(N4CCNCC4=O)cn3)nc2c(N2CCCCC2)n1 [Compound 203]
0.01 to 0.1	≥ 0.1	C[C@@H](O)c1cc2cnc(Nc3ccc(CN4CCC(O)CC4)cn3)nc2c(N2CCCC2)n1 [Compound 66]
0.01 to 0.1	≥ 0.1	C[C@@H](O)c1cc2cnc(Nc3ccc(N4CCN(C)CC4=O)cn3)nc2c(N2CCOCC2)n1 [Compound 74]
0.01 to 0.1	≥ 0.1	C[C@@H](O)c1cc2cnc(Nc3ccc(CN4CCN(CCO)C(=O)C4)cn3)nc2c(N2CCCCC2)n1 [Compound 249]
< 0.01	≥ 0.1	C[C@@H](O)c1cc2cnc(Nc3ccc4c(n3)CCN(CCO)C4)nc2c(N2CCC(F)(F)CC2)n1 [Compound 81]
0.01 to 0.1	≥ 0.1	C[C@@H](O)c1cc2cnc(Nc3ccc(CN4CCN(C)CC4)cn3)nc2c(N2CCOCC2)n1 [Compound 145]
0.01 to 0.1	≥ 0.1	CN1CCN(c2ccc(Nc3ncc4cc(C(F)F)nc(N5CCOCC5)c4n3)nc2)CC1 [Compound 4]
0.01 to 0.1	≥ 0.1	C[C@@H](O)c1cc2cnc(Nc3ccc(CN4CCN(C)CC4)cn3)nc2c(N2CC(F)(F)C2)n1 [Compound 133]
0.01 to 0.1	≥ 0.1	NC(=O)c1cc2cnc(Nc3ccc(N4CCNCC4)cn3)nc2c(N2CCCCC2)n1 [Compound 28]
< 0.01	≥ 0.1	Cc1nc(Nc2ncc3cc([C@@H](C)O)nc(N4CCCCC4)c3n2)ccc1N1CCNCC1 [Compound 87]
< 0.01	≥ 0.1	C[C@@H](O)c1cc2cnc(Nc3ccc(OC4CCNCC4)cn3)nc2c(N2CCC[C@H](F)C2)n1 [Compound 243]
< 0.01	≥ 0.1	O=C1CCNCCN1c1ccc(Nc2ncc3cc(C4COC4)nc(N4CCCCC4)c3n2)nc1 [Compound 276]
< 0.01	≥ 0.1	C[C@@H](O)c1cc2cnc(Nc3ccc(N4CCNCC4=O)cn3)nc2c(N2CCC(F)(F)CC2)n1 [Compound 64]
< 0.01	≥ 0.1	C[C@@H](O)c1cc2cnc(Nc3ccc(C(=O)N4CCS(=O)(=O)CC4)cn3)nc2c(N2CCCCC2)n1 [Compound 314]
< 0.01	≥ 0.1	C[C@@H](O)c1cc2cnc(Nc3ccc(CN4CCN(C)C[C@@H]4C)cn3)nc2c(N2CCCCC2)n1 [Compound 186]
≥ 0.1	≥ 0.1	CC(F)(F)c1cc2cnc(Nc3ccc(N4CCNCC4)cn3)nc2c(N2CCOCC2)n1 [Compound 36]
0.01 to 0.1	≥ 0.1	CC(C)(O)c1cc2cnc(Nc3ccc(N4CCNCC4)cn3)nc2c(N2CCOCC2)n1 [Compound 37]
< 0.01	0.01 to 0.1	C[C@@H](O)c1cc2cnc(Nc3ccc(C(=O)N4CCN(C)CC4)cn3)nc2c(N2CCCCCC2)n1 [Compound 319]
< 0.01	≥ 0.1	C[C@@H](O)c1cc2cnc(Nc3ccc(N4CCNCC4=O)cn3)nc2c(N2CCCC2)n1 [Compound 51]
< 0.01	≥ 0.1	O=C1CNCCCN1c1ccc(Nc2ncc3cc(C4COC4)nc(N4CCCCC4)c3n2)nc1 [Compound 323]
< 0.01	≥ 0.1	C[C@@H](O)c1cc2cnc(Nc3ccc(N4CCN(CCO)CCC4=O)cn3)nc2c(N2CCCCC2)n1 [Compound 151]
< 0.01	0.01 to 0.1	C[C@@H](O)c1cc2cnc(Nc3ccc(N4CCCNCC4=O)cn3)nc2c(N2CCCCCC2)n1 [Compound 307]
0.01 to 0.1	≥ 0.1	COC(=O)c1cc2cnc(Nc3ccc(N4CCNCC4)cn3)nc2c(N2CCCCC2)n1 [Compound 25]
